# PubChem BioAssay AID328 (DTP/NCI, 2004)
# Where “and” joins values, the source holds several entries; their conditions need not be identical. Equal entries are not always repeated. Toxic doses and inconclusive results are not listed.
# Tested on: BDF1 mice, P388 leukemia ip, median survival T/C
# Test: NCI In Vivo Anticancer Drug Screen. Data for tumor model P388 Leukemia (intraperitoneal) in B6D2F1 (BDF1) mice
# Settings: endpoint: median survival time, higher = longer survival
# Method in brief: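 Steps: implant the tumour, treat one group with compound and another with vehicle, record survival, then divide treated by control.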
# [1] = dose: 25.0 mg/kg/injection, schedule: Q01DX009 (ip), vehicle: saline with Tween-80
# [2] = dose: 50.0 mg/kg/injection, schedule: Q01DX009 (ip), vehicle: saline with Tween-80
# [3] = dose: 100.0 mg/kg/injection, schedule: Q01DX009 (ip), vehicle: saline with Tween-80
# [4] = dose: 100.0 mg/kg/injection, schedule: Q04DX003 (ip), vehicle: saline with Tween-80
# [5] = dose: 3.0 mg/kg/injection, schedule: Q04DX003 (ip), vehicle: saline
# [6] = dose: 25.0 mg/kg/injection, schedule: Q04DX003 (ip), vehicle: saline with Tween-80
# [7] = dose: 50.0 mg/kg/injection, schedule: Q04DX003 (ip), vehicle: saline with Tween-80
# [8] = dose: 12.5 mg/kg/injection, schedule: Q04DX003 (ip), vehicle: saline
# [9] = dose: 200.0 mg/kg/injection, schedule: Q01DX009 (ip), vehicle: saline with Tween-80
smiles,measurement,setting,value
COc1cc(C(=O)c2cocc2C(=O)c2ccc3c(c2)OCO3)cc(OC)c1OC,T/C,"dose: 25.0 mg/kg/injection, schedule: Q01DX010 (ip), vehicle: saline",108 % of control
same,T/C,"dose: 50.0 mg/kg/injection, schedule: Q01DX010 (ip), vehicle: other",123 % of control
same,T/C,"dose: 50.0 mg/kg/injection, schedule: Q01DX010 (ip), vehicle: saline",91 % of control
same,T/C,"dose: 50.0 mg/kg/injection, schedule: Q01DX010 (ip), vehicle: water",100 % of control
same,T/C,"dose: 100.0 mg/kg/injection, schedule: Q01DX010 (ip), vehicle: other",180 % of control
same,T/C,"dose: 100.0 mg/kg/injection, schedule: Q01DX010 (ip), vehicle: saline",86 % of control and 100 % of control
same,T/C,"dose: 100.0 mg/kg/injection, schedule: Q01DX010 (ip), vehicle: water",111 % of control
same,T/C,"dose: 200.0 mg/kg/injection, schedule: Q01DX010 (ip), vehicle: other",165 % of control
same,T/C,"dose: 200.0 mg/kg/injection, schedule: Q01DX010 (ip), vehicle: saline",90 % of control
same,T/C,"dose: 200.0 mg/kg/injection, schedule: Q01DX010 (ip), vehicle: water",155 % of control
same,T/C,"dose: 400.0 mg/kg/injection, schedule: Q01DX010 (ip), vehicle: other",173 % of control
Cc1nc2nc(N)[nH]c(=O)c2[nH]1,T/C,[1],112 % of control
same,T/C,[2],124 % of control
same,T/C,[3],104 % of control
same,T/C,[4],109 % of control
S=C1SC2(CCCCCC2)NC2=C1CCCCC2,T/C,"dose: 100.0 mg/kg/injection, schedule: Q01DX009 (ip), vehicle: Klucel (hydroxypropylcellulose) (HPC)",106 % of control
same,T/C,"dose: 200.0 mg/kg/injection, schedule: Q01DX009 (ip), vehicle: Klucel (hydroxypropylcellulose) (HPC)",103 % of control
same,T/C,"dose: 400.0 mg/kg/injection, schedule: Q01DX009 (ip), vehicle: Klucel (hydroxypropylcellulose) (HPC)",105 % of control
CCC1(O)CC2CN(CCc3c([nH]c4ccccc34)C(C(=O)OC)(c3cc4c(cc3OC)N(C)C3C(O)(C(N)=O)C(O)C5(CC)C=CCN6CCC43C65)C2)C1 (configuration not stated) (tested in a mixture with another compound),T/C,"dose: 0.65 mg/kg/injection, schedule: Q04DX003 (ip), vehicle: saline",188 % of control
same,T/C,"dose: 0.87 mg/kg/injection, schedule: Q04DX003 (ip), vehicle: saline",154 % of control
same,T/C,"dose: 1.08 mg/kg/injection, schedule: Q04DX003 (ip), vehicle: saline",223 % of control
same,T/C,"dose: 1.3 mg/kg/injection, schedule: Q04DX003 (ip), vehicle: saline",187 % of control
same,T/C,"dose: 1.8 mg/kg/injection, schedule: Q04DX003 (ip), vehicle: saline",238 % of control
same,T/C,"dose: 2.0 mg/kg/injection, schedule: Q04DX003 (ip), vehicle: saline",163 % of control
same,T/C,[5],101 % of control
same,T/C,"dose: 500.0 micrograms/kg/injection, schedule: Q04DX003 (ip), vehicle: saline",175 % of control
same,T/C,"dose: 648.0 micrograms/kg/injection, schedule: Q04DX003 (ip), vehicle: saline",203 % of control
same,T/C,"dose: 1000.0 micrograms/kg/injection, schedule: Q04DX003 (ip), vehicle: saline",250 % of control
same,T/C,"dose: 1080.0 micrograms/kg/injection, schedule: Q04DX003 (ip), vehicle: saline",237 % of control
same,T/C,"dose: 1800.0 micrograms/kg/injection, schedule: Q04DX003 (ip), vehicle: saline",237 % of control
same,T/C,"dose: 2000.0 micrograms/kg/injection, schedule: Q04DX003 (ip), vehicle: saline",211 % of control
same,T/C,"dose: 4000.0 micrograms/kg/injection, schedule: Q04DX003 (ip), vehicle: saline",96 % of control
CCCCNC(C)(C)C(SSC(c1cccs1)C(C)(C)NCCCC)c1cccs1 (configuration not stated),T/C,[1],100 % of control
same,T/C,[6],109 % of control
same,T/C,[2],100 % of control
same,T/C,[7],118 % of control
same,T/C,[4],118 % of control
CC1CN1c1nc(N2CC2C)nc(N2CC2C)n1 (configuration not stated),T/C,"dose: 3.0 mg/kg/injection, schedule: Q01DX009 (ip), vehicle: saline",104 % of control
same,T/C,[5],109 % of control
same,T/C,"dose: 6.0 mg/kg/injection, schedule: Q01DX009 (ip), vehicle: saline",112 % of control
same,T/C,"dose: 6.0 mg/kg/injection, schedule: Q04DX003 (ip), vehicle: saline",109 % of control
same,T/C,"dose: 12.0 mg/kg/injection, schedule: Q04DX003 (ip), vehicle: saline",114 % of control
same,T/C,[8],120 % of control
Cc1cccc(-n2c(CC#N)n[nH]c2=S)c1,T/C,[2],96 % of control
same,T/C,[9],100 % of control
O=[N+]([O-])c1ccc(/C=C\S(=O)(=O)OCCCl)cc1,T/C,"dose: 3.12 mg/kg/injection, schedule: Q01DX005 (ip), vehicle: Klucel (hydroxypropylcellulose) (HPC)",115 % of control
same,T/C,"dose: 6.25 mg/kg/injection, schedule: Q01DX005 (ip), vehicle: Klucel (hydroxypropylcellulose) (HPC)",99 % of control
same,T/C,"dose: 12.5 mg/kg/injection, schedule: Q01DX005 (ip), vehicle: Klucel (hydroxypropylcellulose) (HPC)",114 % of control
CSc1nc(NN(C)C)c2[nH]c(C)nc2n1,T/C,"dose: 0.78 mg/kg/injection, schedule: Q01DX009 (ip), vehicle: saline with Tween-80",97 % of control
same,T/C,"dose: 1.56 mg/kg/injection, schedule: Q01DX009 (ip), vehicle: saline with Tween-80",116 % of control
same,T/C,"dose: 3.13 mg/kg/injection, schedule: Q01DX009 (ip), vehicle: saline with Tween-80",111 % of control
same,T/C,"dose: 6.25 mg/kg/injection, schedule: Q01DX009 (ip), vehicle: saline with Tween-80",87 % of control
Cc1cc2ccccc2oc1=O,T/C,[6],100 % of control
same,T/C,[7],100 % of control
same,T/C,[4],100 % of control
CCCCCCCCCCCCCCCCCC[N+](C)(C)C (tested in a mixture with another compound),T/C,"dose: 1.0 mg/kg/injection, schedule: Q01DX009 (ip), vehicle: saline",109 % of control
same,T/C,"dose: 2.0 mg/kg/injection, schedule: Q01DX009 (ip), vehicle: saline",113 % of control
same,T/C,"dose: 4.0 mg/kg/injection, schedule: Q01DX009 (ip), vehicle: saline",118 % of control
CCOC(=O)CCc1nn(C)c2ccc(CC)cc2c1=O,T/C,[2],101 % of control
same,T/C,[3],92 % of control
same,T/C,[9],90 % of control
CCN(CC)C(=S)SSC(=S)N(CC)CC,T/C,"dose: 75.0 mg/kg/injection, schedule: Q01DX001 (ip), vehicle: Klucel (hydroxypropylcellulose) (HPC)",104 % of control
same,T/C,"dose: 150.0 mg/kg/injection, schedule: Q01DX001 (ip), vehicle: Klucel (hydroxypropylcellulose) (HPC)",104 % of control
same,T/C,"dose: 300.0 mg/kg/injection, schedule: Q01DX001 (ip), vehicle: Klucel (hydroxypropylcellulose) (HPC)",95 % of control
Cc1cccc2nc(Oc3ccccc3)nc(=O)n12,T/C,[2],96 % of control
same,T/C,[3],99 % of control
CC(=O)OC1OC(CSC(=N)N)C(OC(C)=O)C(OC(C)=O)C1OC(C)=O (configuration not stated),T/C,[2],116 % of control
same,T/C,[3],119 % of control
same,T/C,[9],110 % of control
O=[N+]([O-])c1ccc(N2CCN(c3ccc(Cl)cc3)CC2)c2c1no[n+]2[O-],T/C,"dose: 15.0 mg/kg/injection, schedule: Q01DX009 (ip), vehicle: saline with Tween-80",100 % of control
same,T/C,"dose: 30.0 mg/kg/injection, schedule: Q01DX009 (ip), vehicle: saline with Tween-80",99 % of control
same,T/C,"dose: 60.0 mg/kg/injection, schedule: Q01DX009 (ip), vehicle: saline with Tween-80",99 % of control
CC1=C(Br)C(=O)C(c2c(C)cc(C)cc2C)=C(Br)C1=O,T/C,"dose: 6.25 mg/kg/injection, schedule: Q01DX009 (ip), vehicle: saline",86 % of control
same,T/C,"dose: 12.5 mg/kg/injection, schedule: Q01DX009 (ip), vehicle: saline",93 % of control
same,T/C,[8],104 % of control
same,T/C,"dose: 25.0 mg/kg/injection, schedule: Q04DX003 (ip), vehicle: saline",95 % of control
same,T/C,"dose: 50.0 mg/kg/injection, schedule: Q04DX003 (ip), vehicle: saline",105 % of control
same,T/C,"dose: 100.0 mg/kg/injection, schedule: Q04DX003 (ip), vehicle: saline",97 % of control
same,T/C,"dose: 200.0 mg/kg/injection, schedule: Q04DX003 (ip), vehicle: saline",95 % of control
Fc1ccccc1C1=NCC(=S)N(CC(F)(F)F)c2ccc(Cl)cc21,T/C,[2],100 % of control
same,T/C,[3],96 % of control
O=C1CCC23/C=C/C(=O)NCCCCNCCCNC(=O)/C=C/c4ccc(c2c4)OC3C1 (configuration not stated),T/C,[7],105 % of control
same,T/C,[4],105 % of control
same,T/C,"dose: 200.0 mg/kg/injection, schedule: Q04DX003 (ip), vehicle: saline with Tween-80",105 % of control
CC(OC(=O)Nc1cccc(Cl)c1)C(=O)O (configuration not stated),T/C,"dose: 100.0 mg/kg/injection, schedule: Q01DX009 (ip), vehicle: gum acacia",107 % of control
same,T/C,"dose: 200.0 mg/kg/injection, schedule: Q01DX009 (ip), vehicle: gum acacia",96 % of control
same,T/C,"dose: 400.0 mg/kg/injection, schedule: Q01DX009 (ip), vehicle: gum acacia",100 % of control
